Legend:
[1] = Acute toxicity, oral, Compound No. 18; settings: rat, in vivo, male SD rats (5 weeks old)
Experimental: Acute toxicity of 5-amino-N-cyano-N'-(2-nitroxyethyl)-3-pyridinecarboximidamide (Compound No. 18) of the present invention on oral administration was examined with male SD rats (5 weeks old). As a result, LD50 was about 600 mg/kg.

rat aorta = assay: Vasodilating effect in a rat aorta (relaxation of KCl-induced contraction); design: species or system rat (male Wistar rat); settings: isolated rat thoracic aorta, 40 mM KCl; read-out: IC50 (concentration for inhibiting 50% of the tension induced by KCl)
Experimental: Physiological effect of the compound of the present invention was tested by the method with use of an isolated rat aorta.
Thoracic aorta was isolated from a male Wistar rat (body weight, 250-350 g) exsanguinated to death for obtaining ring preparations having a width of 3 mm. The preparations were suspended into an organ bath filled with the Krebs-Ringer solution through which a mixed gas of 95% O2 and 5% CO2 had been aerated at 37° C. A resting tension of 1 g was applied to the preparation. After the tension in the preparation was stabilized, the solution in the organ bath was exchanged with an equimolar solution containing 40 mM KC1 to increase the tension of the preparation. When the tension induced by KCl become stable, the test compound was cumulatively added to the organ bath to relax the preparation. Relaxation response was expressed as percentage inhibition of KCl-induced contraction, and the IC50 value (concentration for inhibiting 50% of the tension induced by KCl) was calculated from the average concentration-response curve by the Probit method.

[2] = test system: spontaneously hypertensive rats (SHR), systolic blood pressure; assay: Antihypertensive effects on conscious SHR (oral), Compound Nos. 18 and 19; type: in vivo, rat (male spontaneously hypertensive rats
Experimental: Antihypertensive effects of- 5-amino-N-cyano-N'-(2-nitroxyethyl)-3-pyridinecarboximidamide (N-cyano-N'-(2-nitroxyethyl)-5-(3-aminopyridine)carboximidamide; Compound No. 18) and N-cyano-5-ethylamino-N'-(2-nitroxyethyl)-3-pyridinecarboximidamide (N-cyano-N'-(2-nitroxyethyl)-5-[3-(N-ethylaminopyridine)]carboximidamide; Compound No. 19) were assessed by comparison with those of the methanesulfonate salt of N-cyano-N'-(2-nitroxyethyl)-3-pyridinecarboximidamide (compound described in Japanese Patent Laid-Open Publication No. 163061/1991) as a reference compound which is thought to be a well-known compound most similar to the compound of the present invention.
Systolic blood pressure (SBP) was measured with the tail cuff method.
Each of the compound Nos. 18 and 19 was dissolved in an equivalent mixture of polyethylene glycol 200 and physiological saline, and the reference compound was dissolved in physiological saline. The compounds were administered orally with the aid of an oral probe. SBP was measured before administration and 1, 2, 4, 6, 8, 12 and 24 hours after administration of the compound. The results were expressed as the percentage change in SBP observed before administration.

[3] = test system: coronary blood flow (circumflex branch of the left coronary artery), beagles; assay: Coronary dilating effect on beagles (coronary blood flow, anesthetized dog); type: in vivo; settings: i.v., 10 Mg/Kg
Experimental: Coronary dilating effects of 5-amino-N-cyano-N'-(2-nitroxyethyl)-3-pyridinecarboximidamide (Compound No. 18) of the present invention was assessed by comparison with those of N-cyano-N'-(2-nitroxyethyl)-3-pyridinecarboximidamide methanesulfonic acid (compound described in Japanese Patent Laid-Open Publication No. 163061/1991) which is thought to be a well-known compound most similar to the compound of the present invention.
A dog (body weight, 8.3 kg) was anesthetized with 30 mg/kg of pentobarbital sodium intravenously. Respiration was maintained with room air through a cuffed endotracheal tube. The drug was administered through the femoral vein, and the coronary blood flow was measured by a probe attached to the circumflex branch of the left coronary artery.

With `N#CNC(=NCCO[N+](=O)[O-])c1cncc(N)c1` [Compound No. 18, 5-amino-N-cyano-N'-(2-nitroxyethyl)-3-pyridinecarboximidamide] the LD50 [1] was roughly 600 mg/kg, the IC50 (rat aorta) was 22 µM and the “decrease in blood pressure / antihypertensive effect” value ([2]; 3.0 mg/kg oral) was “decrease in blood pressure was observed”. The “duration of the antihypertensive effect” value ([2]; 3.0 mg/kg oral) was no less than 12 h, the “percent change in SBP observed before administration of the compound” value (from here on “percent change … of the compound”) ([2]; 3.0 mg/kg oral, 1 hour after administration) was -56.9% and the “percent change … of the compound” value ([2]; 3.0 mg/kg oral, 2 hour after administration) was -49.2%. For the same molecule, the “percent change … of the compound” value ([2]; 3.0 mg/kg oral, 4 hour after administration) was -42.6%, the “percent change … of the compound” value ([2]; 3.0 mg/kg oral, 6 hour after administration) was -17.9% and the “percent change … of the compound” value ([2]; 3.0 mg/kg oral, 8 hour after administration) was -20.5%. For the same molecule, the “percent change … of the compound” value ([2]; 3.0 mg/kg oral, 12 hour after administration) was -22.2%, the “percent change … of the compound” value ([2]; 3.0 mg/kg oral, 24 hour after administration) was -3.7% and the “antihypertensive activity or coronary vasodilating effect determined with the passage of time” value ([2]; summary statement) was “remarkably potent and sustainable”. For the same molecule, the “increase of coronary blood flow” value [3] was “increase of coronary blood flow was observed”, the “time for which the increase of coronary blood flow was retained” value [3] was no less than 15 min and the “percent change of coronary blood flow as compared with the blood flow before administration” value (“percent change of coronary blood flow” for short) ([3]; 1 min after dosage) was 200.0%. The “percent change of coronary blood flow” value ([3]; 3 min after dosage) was 123.8%, the “percent change of coronary blood flow” value ([3]; 5 min after dosage) was 71.4% and the “percent change of coronary blood flow” value ([3]; 10 min after dosage) was 19.0%. The “percent change of coronary blood flow” value ([3]; 15 min after dosage) was 19.0% and the “percent change of coronary blood flow” value ([3]; 20 min after dosage) was 0.0%.

From patent US5508293A, “Pyridinecarboxyimidamide compounds and the use thereof” (Kirin Beer Kabushiki Kaisha, priority 1992, dated 1996)
